The text below walks through data of patent US20220227765A1, “PYRIDO-INDOLE ANALOGUES AS GPX4 INHIBITORS” (Ferro Therapeutics, Inc., priority 2019, published 2022).

Common to all, as to format: cell-based, human
For assay [1], the system named is SJSA-1. As to the kind of experiment: Cell proliferation (Alamar Blue) assay, SJSA-1. The following applies: Homo sapiens, SJSA-1, 24 h, Table B-3, head prints SJSB-1, 24 h, read-out: IC50 (μM) SJSB-1. How it is done:
(§1) Cell viability assay was performed to assess the potency of the compounds in human cancer cell lines 786-0 (renal cell carcinoma) and SJSA-1 (osteosarcoma). Additional cell lines, such as pancreatic cancer cell lines (Panc 02.13, BxPC-3, Panc 12, Panc 02.03, Panc 6.03, PSN-1, HPAC, and Capan-1), prostate cancer cell lines (PC-3, DU145, 22Rv1, NCI-H660, BPH1, LNCaP, BM-1604, and MDA PCa 2b), etc., can be tested in a similar method.
(§2) Cells (SJSA-1, 786-0 and A431) were seeded (5000 cells/100 μL/well) in 96-well tissue culture plate and incubated at 37° C./5% CO2 for 16-24 hours. The cells were then treated with compounds (25 μL of 5×). The compound concentrations were 10-0.0005 μM prepared in 3-fold serial dilutions with final DMSO concentration of 1%. The plates were then incubated for 24 h at 37° C./5% CO2 in a moist environment. Then Alamar Blue™ reagent (final concentration 1×-12.5 μL) was added to each well and incubated for 1.5 hours at 37° C./5% CO2. The plates were read on fluorescence reader at 540 nm excitation and 590 nm emission wavelengths. The IC50 values were subsequently determined using a sigmoidal dose-response curve (variable slope) in GraphPad Prism® 5 software. Table A-3, Table B-3 and Table C-3 show cell proliferation data for certain compounds as described herein.
In general terms: The colour change of resazurin is a common sign of viable cells or microbes.

Assay [2] deals with 786-O. Briefly: Cell proliferation (Alamar Blue) assay, 786-O. The following applies: Homo sapiens, 786-0, 24 h, Table B-3, 786-O cells. How it is done:
as §1, §2

Assay [3] concerns A431. As to the kind of experiment: Cell proliferation (Alamar Blue) assay, A431. The following applies: Table B-3, A431 cells. How it is done: as §1, §2

Where only a bound is given, the exact number is not on record here.

Consider `C#CC(=O)N1[C@@H](CCCC)Cc2c([nH]c3ccccc23)[C@@H]1c1ccc(NC23CC4CC(CC(C4)C2)C3)cc1` [Compound B-18], for which the figures for the IC50 in assay [1], in assay [2] and in assay [3] (24 h) were 0.006 µM, 0.005 µM and 7.8 µM, respectively.
Take `C#CC(=O)N1[C@@H](CCCC)Cc2c([nH]c3ccccc23)[C@@H]1c1ccc(C(=O)NCCn2ccnc2)cc1` [Compound B-19]: the IC50 (usually the concentration at which inhibition is half-maximal) in assay [1] was 0.294 µM; in assay [2], 0.367 µM; in assay [3] (Homo sapiens, A-431, 24 h), over 10 µM.
In the same order, the values of `C#CC(=O)N1[C@@H](CCCC)Cc2c([nH]c3c(F)cc(F)cc23)[C@@H]1c1nccn1C` [Compound B-24] are 0.167 µM, 0.123 µM and over 10 µM.
The corresponding values for `C#CC(=O)N1C(CCCC)Cc2c([nH]c3ccccc23)[C@@H]1c1ccc(CNCC23CC4CC(CC(C4)C2)C3)cc1` (stereo partly drawn) [Compound B-45A] are 0.001 µM, 0.0002 µM and 3.8 µM.
The corresponding values for `C#CC(=O)N1C(CCCC)Cc2c([nH]c3ccccc23)[C@H]1c1ccc(CNCC23CC4CC(CC(C4)C2)C3)cc1` (stereo partly drawn) [Compound B-45B] are 0.011 µM, 0.005 µM and 1.7 µM.
Consider `C#CC(=O)N1[C@@H](CCCC)Cc2c([nH]c3c(F)cc(F)cc23)[C@@H]1c1ccc(N2CCN(C)CC2)cc1` [Compound B-57], for which the half-maximal inhibitory concentration (IC50) is 0.063 µM in assay [1]; 0.059 µM in assay [2]; over 10 µM in assay [3] (Homo sapiens, A-431, 24 h).
In the same order, the values of `C#CC(=O)N1[C@@H](CCCC)Cc2c([nH]c3c(F)cc(F)cc23)[C@@H]1c1ccc(N2CCN(C)CC2)c(C#N)c1` [Compound B-58] are 0.15 µM, 0.135 µM and over 10 µM.
Regarding `C#CC(=O)N1[C@@H](CCCC)Cc2c([nH]c3c(F)cc(F)cc23)[C@@H]1c1ccc(N2CCC2)cc1` [Compound B-59], the IC50 is 0.016 µM in assay [1]; 0.011 µM in assay [2]; over 10 µM in assay [3] (Homo sapiens, A-431, 24 h).
Take `C#CC(=O)N1[C@@H](CCCC)Cc2c([nH]c3c(F)cc(F)cc23)[C@@H]1c1ccc(N2CCC2)c(C#N)c1` [Compound B-60]: the IC50 is 0.706 µM in assay [1]; 0.31 µM in assay [2]; over 10 µM in assay [3] (Homo sapiens, A-431, 24 h).
In the same order, the values of `C#CC(=O)N1[C@@H](CC)Cc2c([nH]c3c(F)cc(F)cc23)[C@@H]1c1ccc(F)cc1` [Compound B-61] are 0.068 µM, 0.062 µM and over 10 µM.
As for `C#CC(=O)N1C(c2ccn(-c3ccc(F)cc3)n2)c2[nH]c3ccccc3c2C[C@@H]1CCCC` (stereo partly drawn) [Compound B-62], the IC50 was found to be 0.021 µM in assay [1]; 0.029 µM in assay [2]; 6.4 µM in assay [3] (Homo sapiens, A-431, 24 h).
The corresponding values for `C#CC(=O)N1C(c2ccn(C34CC5CC(CC(C5)C3)C4)n2)c2[nH]c3ccccc3c2C[C@@H]1CCCC` (stereo partly drawn) [Compound B-63] are 0.059 µM, 0.061 µM and 5.8 µM.
In the same order, the values of `C#CC(=O)N1[C@@H](CCCC)Cc2c([nH]c3ccc(F)cc23)[C@@H]1c1ccc(NC23CC4CC(CC(C4)C2)C3)cc1` [Compound B-64] are 0.012 µM, 0.008 µM and 4.45 µM.
The corresponding values for `C#CC(=O)N1[C@@H](CCCC)Cc2c([nH]c3c(F)cc(F)cc23)[C@@H]1c1ccc(NC23CC4CC(CC(C4)C2)C3)cc1` [Compound B-65] are 0.016 µM, 0.015 µM and 3.53 µM.
`C#CC(=O)N1[C@@H](CCC)Cc2c([nH]c3ccccc23)[C@@H]1c1ccc(NC23CC4CC5CC(C2)C54C3)cc1` (stereo partly drawn) [Compound B-67]: the IC50 in assay [1] was found to be 0.0025 µM; in assay [2], 0.006 µM; in assay [3] (Homo sapiens, A-431, 24 h) it was 2 µM.
In the same order, the values of `C#CC(=O)N1[C@@H](CCCC)Cc2c([nH]c3ccccc23)[C@@H]1c1ccc(NC2CCCC2)cc1` [Compound B-68] are 0.0715 µM, 0.045 µM and over 10 µM.
In the same order, the values of `C#CC(=O)N1[C@@H](CCCC)Cc2c([nH]c3ccccc23)[C@@H]1c1ccc(N2CCC3(COC3)C2)cc1` [Compound B-69, 1-((1S,3S)-1-(4-(2-oxa-6-azaspiro[3.4]octan-6-yl)phenyl)-3-butyl-1,3,4,9-tetrahydro-2H-pyrido[3,4-b]indol-2-yl)prop-2-yn-1-one] are 0.036 µM, 0.047 µM and over 1 µM.
The corresponding values for `C#CC(=O)N1[C@@H](CCCC)Cc2c(n(C)c3ccccc23)[C@@H]1c1ccc(NC23CC4CC(CC(C4)C2)C3)cc1` [Compound B-70, 1-((1S,3S)-1-(4-(((1R,3R,5S)-adamantan-1-yl)amino)phenyl)-3-butyl-9-methyl-1,3,4,9-tetrahydro-2H-pyrido[3,4-b]indol-2-yl)prop-2-yn-1-one] are 0.066 µM, 0.0165 µM and 4.76 µM.
In the case of `C#CC(=O)N1[C@@H](CCCC)Cc2c([nH]c3ccccc23)[C@@H]1c1ccc(NC2CCCCC2)cc1` [Compound B-71], the IC50 in assay [1] was 0.056 µM; in assay [2], 0.042 µM; in assay [3] (Homo sapiens, A-431, 24 h) it was over 10 µM.
For the compound `C#CC(=O)N1[C@@H](CCCC)Cc2c([nH]c3c(F)cc(F)cc23)[C@@H]1C(C)C` [Compound B-72], the IC50 in assay [1] is 0.223 µM; in assay [2], 0.222 µM; in assay [3] (Homo sapiens, A-431, 24 h), over 10 µM.
On to `C#CC(=O)N1[C@@H](CCCC)Cc2c([nH]c3c(F)cc(F)cc23)[C@@H]1CCC` [Compound B-73], for which the 50% inhibitory concentration (IC50) in assay [1] is 0.22 µM; in assay [2] it was 0.14 µM; in assay [3] (Homo sapiens, A-431, 24 h) it was over 10 µM.
The corresponding values for `C#CC(=O)N1[C@@H](CCCC)Cc2c([nH]c3c(F)cc(F)cc23)[C@@H]1CCCC` [Compound B-74] are 0.04 µM, 0.05 µM and 4.4 µM.
As for `C#CC(=O)N1[C@@H](CCCC)Cc2c([nH]c3c(F)cc(F)cc23)[C@@H]1C1CCC(=O)CC1` [Compound B-76], the IC50 in assay [1] is 0.247 µM; in assay [2], 0.168 µM; in assay [3] (Homo sapiens, A-431, 24 h) it was over 10 µM.
The corresponding values for `C#CC(=O)N1[C@@H](CCCC)Cc2c([nH]c3c(F)cc(F)cc23)[C@@H]1C1CCC(O)CC1` (stereo partly drawn) [Compound B-77] are 0.16 µM, 0.166 µM and 6.57 µM.
In the same order, the values of `C#CC(=O)N1[C@@H](CCCC)Cc2c([nH]c3c(F)cc(F)cc23)[C@@H]1CCCCCCCC` [Compound B-79] are 0.08 µM, 0.07 µM and 9.4 µM.
In the same order, the values of `C#CC(=O)N1[C@@H](CCCC)Cc2c([nH]c3c(F)cc(F)cc23)[C@@H]1COCCOC` [Compound B-80] are 0.093 µM, 0.043 µM and 6.8 µM.
With `C#CC(=O)N1[C@@H](CCCC)Cc2c([nH]c3c(F)cc(F)cc23)[C@@H]1CC(C)C` [Compound B-82], the IC50 was 0.16 µM in assay [1]; 0.2 µM in assay [2]; over 10 µM in assay [3] (Homo sapiens, A-431, 24 h).
In the same order, the values of `CCCC[C@H]1Cc2c([nH]c3c(F)cc(F)cc23)[C@H](C23CC(N)(C2)C3)N1C(=O)CCl` [Compound B-83] are 0.12 µM, 0.12 µM and over 10 µM.
The corresponding values for `CCCC[C@H]1Cc2c([nH]c3c(F)cc(F)cc23)[C@H](c2ccc(N)cc2)N1C(=O)CCl` [Compound B-85] are 0.024 µM, 0.012 µM and over 10 µM.
The corresponding values for `C#CC(=O)N1[C@@H](CCCC)Cc2c([nH]c3c(F)cc(F)cc23)[C@@H]1c1ccc(NC(=O)OCCCC(=O)O)cc1` [Compound B-86] are 0.239 µM, 0.227 µM and over 10 µM.
Take `C#CC(=O)N1[C@@H](CCCC)Cc2c([nH]c3c(F)cc(F)cc23)[C@@H]1c1ccc(NC(=O)CCCCC(=O)O)cc1` [Compound B-87]: the IC50 in assay [1] was over 10 µM; in assay [2], over 10 µM; in assay [3] (Homo sapiens, A-431, 24 h), over 10 µM.
In the case of `CCCCCOC(=O)Nc1ccc([C@H]2c3[nH]c4c(F)cc(F)cc4c3C[C@H](CCCC)N2C(=O)CCl)cc1` [Compound B-89], the IC50 in assay [1] was 0.002 µM; in assay [2] it was 0.008 µM; in assay [3] (Homo sapiens, A-431, 24 h) it was over 10 µM.
The corresponding values for `CCCCCOC(=O)NC12CC([C@H]3c4[nH]c5c(F)cc(F)cc5c4C[C@H](CCCC)N3C(=O)CCl)(C1)C2` [Compound B-90] are 0.03 µM, 0.013 µM and over 10 µM.
In the same order, the values of `C#CC(=O)N1[C@@H](CCCC)Cc2c([nH]c3ccccc23)[C@@H]1CCCCC` [Compound B-92] are 0.17 µM, 0.137 µM and over 10 µM.
In the same order, the values of `C#CC(=O)N1[C@@H](CCCC)Cc2c([nH]c3ccccc23)[C@@H]1CCCCCC` [Compound B-93] are 0.077 µM, 0.091 µM and over 10 µM.
